In ChEMBL document CHEMBL1136502, “Novel mechanism of inhibiting beta-lactamases by sulfonylation using beta-sultams” (Bioorg Med Chem Lett, 2003) one finds kinact/Ki and pKa data, which are given here for two molecules.

The target in one series is Beta-lactamase (Enterobacter cloacae, UniProt P05364). Description: Inhibitor activity against Beta-lactamase, derived from the Gram negative bacteria Enterobacter cloacae at pH 7.
A short description of series [1]: pKa value was determined. Type of series: physicochemical.

Beta-lactamase, sequence (P05364 whole entry): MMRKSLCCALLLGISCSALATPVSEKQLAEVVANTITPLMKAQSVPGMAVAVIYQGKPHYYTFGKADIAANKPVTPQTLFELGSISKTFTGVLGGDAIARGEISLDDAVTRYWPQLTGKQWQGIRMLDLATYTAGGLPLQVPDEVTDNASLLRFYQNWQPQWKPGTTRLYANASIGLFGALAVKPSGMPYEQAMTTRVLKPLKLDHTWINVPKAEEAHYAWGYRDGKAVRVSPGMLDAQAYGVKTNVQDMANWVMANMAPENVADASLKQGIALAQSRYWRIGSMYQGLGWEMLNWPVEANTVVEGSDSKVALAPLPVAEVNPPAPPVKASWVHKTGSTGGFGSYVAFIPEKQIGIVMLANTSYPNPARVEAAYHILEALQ

Regarding `CC(C)C1CN(C(=O)c2ccccc2)S1(=O)=O` (stereo not drawn), at Beta-lactamase, the kinact/Ki stood at 0.07 M⁻¹ s⁻¹.
As usually defined, the pKa is the pH at which an ionisable group is half protonated. Turning to `O=C(c1ccccc1)N1CCS1(=O)=O`, the kinact/Ki on Beta-lactamase turned out to be 163 M⁻¹ s⁻¹. In series [1], this molecule gave a pKa of 6.3.
